Test results reported in PubChem BioAssay AID1963979 (Molecular Pharmacology Branch, DTP, NCI, 2024).

Tested on: 361931-004-R-J1-PDC multicell spheroid viability
Experiment: Anticancer human tumor 361931-004-R-J1-PDC patient-derived colon adenocarcinoma cell line growth inhibition [PI3K]
Details: for IC50: curve of first compound; for viability, T/C: stronger effect = lower value
Procedure, shortened: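 Multi-cell spheroids combine tumor cells with HUVEC and human MSCs, treated with targeted agents alone or with inavolisib, alpelisib, duvelisib or copanlisib. Concentrations fall in half-log steps from at or near clinical Cmax, or from 10 microM where Cmax is unknown; viability read-out.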
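Note: spheroids exposed to agents for seven days before readout.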

Question: What does the source list for `Cn1nccc1Nc1nccc(-c2ccn(C(CO)c3ccc(Cl)c(F)c3)c(=O)c2)n1` (configuration not stated) + COc1c(OCCCN2CCOCC2)ccc2c3n(c(=NC(=O)c4cnc(N)nc4)nc12)CCN3?
Answer: IC50 (second compound 0.00316 µM): 9030 nM; IC50 (second compound 0.01 µM): 4530 nM; IC50 (second compound 0.0316 µM): 1490 nM; IC50 (second compound 0.1 µM): 450 nM; IC50 (second compound 0.316 µM): 32.5 nM; IC50 (second compound 1 µM): < 31.6 nM; viability, T/C (second compound 0.00316 µM, first compound 0.0316 µM): 92.5%; viability, T/C (second compound 0.00316 µM, first compound 0.1 µM): 98.3%; viability, T/C (second compound 0.00316 µM, first compound 0.316 µM): 90.9%; viability, T/C (second compound 0.00316 µM, first compound 1 µM): 86.3%; viability, T/C (second compound 0.00316 µM, first compound 3.16 µM): 77%; viability, T/C (second compound 0.00316 µM, first compound 10 µM): 47.2%; viability, T/C (second compound 0.01 µM, first compound 0.0316 µM): 87.9%; viability, T/C (second compound 0.01 µM, first compound 0.1 µM): 94.4%; viability, T/C (second compound 0.01 µM, first compound 0.316 µM): 88.7%; viability, T/C (second compound 0.01 µM, first compound 1 µM): 80.8%; viability, T/C (second compound 0.01 µM, first compound 3.16 µM): 59.9%; viability, T/C (second compound 0.01 µM, first compound 10 µM): 28.6%; viability, T/C (second compound 0.0316 µM, first compound 0.0316 µM): 92%; viability, T/C (second compound 0.0316 µM, first compound 0.1 µM): 87.7%; viability, T/C (second compound 0.0316 µM, first compound 0.316 µM): 77.4%; viability, T/C (second compound 0.0316 µM, first compound 1 µM): 64%; viability, T/C (second compound 0.0316 µM, first compound 3.16 µM): 27.9%; viability, T/C (second compound 0.0316 µM, first compound 10 µM): 12.6%; viability, T/C (second compound 0.1 µM, first compound 0.0316 µM): 80.8%; viability, T/C (second compound 0.1 µM, first compound 0.1 µM): 72.3%; viability, T/C (second compound 0.1 µM, first compound 0.316 µM): 58.3%; viability, T/C (second compound 0.1 µM, first compound 1 µM): 32.8%; viability, T/C (second compound 0.1 µM, first compound 3.16 µM): 8.5%; viability, T/C (second compound 0.1 µM, first compound 10 µM): 3.74%; viability, T/C (second compound 0.316 µM, first compound 0.0316 µM): 50.8%; viability, T/C (second compound 0.316 µM, first compound 0.1 µM): 40.2%; viability, T/C (second compound 0.316 µM, first compound 0.316 µM): 26.1%; viability, T/C (second compound 0.316 µM, first compound 1 µM): 8.67%; viability, T/C (second compound 0.316 µM, first compound 3.16 µM): 2.32%; viability, T/C (second compound 0.316 µM, first compound 10 µM): 2.04%; viability, T/C (second compound 1 µM, first compound 0.0316 µM): 18.4%; viability, T/C (second compound 1 µM, first compound 0.1 µM): 13.3%; viability, T/C (second compound 1 µM, first compound 0.316 µM): 8.6%; viability, T/C (second compound 1 µM, first compound 1 µM): 2.23%; viability, T/C (second compound 1 µM, first compound 3.16 µM): 1.89%; viability, T/C (second compound 1 µM, first compound 10 µM): 1.61%
